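Each compound was tested at five concentrations against cells in 96-well plates for 48 hours. Here, GI50 denotes the concentration required for 50% inhibition of growth. TGI marks complete inhibition of growth.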
Tests used:
Test in all cases: growth of human tumour cells (NCI), 48 h
HCT-15 colon = test system: HCT-15 colon
COLO 205 colon = test system: COLO 205 colon
SNB-19 CNS = test system: SNB-19 CNS
HCT-116 colon = test system: HCT-116 colon
MALME-3M melanoma = test system: MALME-3M melanoma
SNB-75 CNS = test system: SNB-75 CNS
HL-60(TB) leukemia = test system: HL-60(TB) leukemia
SK-MEL-28 melanoma = test system: SK-MEL-28 melanoma
MOLT-4 leukemia = test system: MOLT-4 leukemia
PC-3 prostate = test system: PC-3 prostate

Row | Compound | TGI (HCT-15 colon) | TGI (COLO 205 colon) | TGI (SNB-19 CNS) | TGI (HCT-116 colon) | TGI (MALME-3M melanoma) | TGI (SNB-75 CNS) | TGI (HL-60(TB) leukemia) | TGI (SK-MEL-28 melanoma) | TGI (MOLT-4 leukemia) | GI50 (HCT-15 colon) | GI50 (COLO 205 colon) | GI50 (SNB-19 CNS) | GI50 (SNB-75 CNS) | GI50 (HL-60(TB) leukemia) | GI50 (SK-MEL-28 melanoma) | GI50 (MOLT-4 leukemia) | GI50 (PC-3 prostate) | TGI (PC-3 prostate) | GI50 (HCT-116 colon)
1 | N[C@H]1C2C3CC4C5CC(C42)C1(c1ccccc1)C53 (stereo partly drawn) | > 100 µM | > 100 µM | > 100 µM | > 100 µM | > 100 µM | > 100 µM | > 100 µM | > 100 µM | > 100 µM |  |  |  |  |  |  |  |  |  | 
2 | N#Cc1ccccc1NC(=O)C(=O)C(C(=O)c1ccccc1-c1ccccc1)C1OC(=O)c2ccccc21 (stereo not drawn) |  | 43.2 µM |  | 23 µM | 26.8 µM | 29.9 µM | 50.2 µM | 40.4 µM | 70 µM |  |  |  |  |  |  |  |  |  | 
3 | CCOC(=O)c1cccc(=O)c(C(=O)OCC)c1 | > 100 µM |  |  | > 100 µM | > 100 µM | > 100 µM | 62.1 µM | > 100 µM | > 100 µM |  |  |  |  |  |  |  |  |  | 
4 | COc1cc2c3c(n(C)c(=O)c2cc1OC)-c1cc2c(cc1/C3=C\CCCCN)OCO2 | > 100 µM | > 100 µM | 71.9 µM |  |  | 7.12 µM | > 100 µM | > 100 µM | > 100 µM | 25.1 µM | 27.5 µM | 23.9 µM | 3.54 µM | 4.68 µM | 28.1 µM | 5.78 µM | 20 µM | 62.1 µM | 
5 | COc1cccc(NC(=O)c2sc3nc4c(cc3c2N)CCCC4)c1 | > 100 µM | > 100 µM | 53.5 µM | > 100 µM |  | 2.77 µM | 0.765 µM | > 100 µM | > 100 µM | 0.387 µM | 3.83 µM | 0.813 µM | 0.271 µM | 0.228 µM | 0.905 µM | 0.765 µM | 0.504 µM | > 100 µM | 0.475 µM
6 | CC1=C(C(=O)Nc2ccc([N+](=O)[O-])cc2)C(c2ccco2)C(C(=O)Nc2ccc([N+](=O)[O-])cc2)=C(C)N1 |  | 51.1 µM | > 100 µM |  | 55.1 µM | > 100 µM | 26.5 µM | > 100 µM | 52.5 µM |  |  |  |  |  |  |  |  |  | 
7 | O=C(O)CN(c1ccc(Cl)cc1)S(=O)(=O)c1ccccc1 | > 100 µM | > 100 µM | > 100 µM |  | > 100 µM | > 100 µM | > 100 µM | > 100 µM | > 100 µM |  |  |  |  |  |  |  |  |  | 
8 | CC(Cc1ccc(Cl)cc1Cl)NO (stereo not drawn) | > 100 µM | > 100 µM | > 100 µM | > 100 µM | > 100 µM | > 100 µM |  | > 100 µM | > 100 µM |  |  |  |  |  |  |  |  | > 100 µM | 
9 | O=C1C2=C(c3ccccc31)C(c1ccc(Cl)cc1)N1C(=O)CCSC1=N2 (stereo not drawn) | > 100 µM | > 100 µM | > 100 µM | > 100 µM | > 100 µM | > 100 µM | > 100 µM | > 100 µM | > 100 µM |  |  |  |  |  |  |  |  |  | 
10 | COC1C=C(Nc2cccc(Cl)c2)C(=O)C1 (stereo not drawn) |  | 22.1 µM | > 100 µM | > 100 µM | > 100 µM | > 100 µM | > 100 µM | > 100 µM | > 100 µM |  |  |  |  |  |  |  |  |  | 
11 | COc1c(OC(C)=O)ccc(/C=C2\N=C(C)OC2=O)c1[N+](=O)[O-] | > 100 µM | > 100 µM | > 100 µM | > 100 µM | > 100 µM | > 100 µM | > 100 µM |  | > 100 µM |  |  |  |  |  |  |  |  |  | 
12 | COC(=O)Nc1nc2ccc(C(=O)c3ccc[nH]3)cc2[nH]1 | > 100 µM | > 100 µM | > 54.7 µM | > 100 µM | > 31.3 µM | 1.69 µM | 0.927 µM | > 100 µM | > 100 µM |  |  |  |  |  |  |  |  |  | 
13 | Cc1ccc2c(c1)NC(c1ccc(C(=O)O)cc1)c1cccn1-2 (stereo not drawn) | > 100 µM | > 100 µM | 94.6 µM | > 100 µM |  | 39.6 µM |  | > 100 µM | > 100 µM |  |  |  |  |  |  |  |  | > 100 µM | 
14 | O=C1C2=C(c3ccccc31)C(c1cccc(Cl)c1)NC(=S)N2 (stereo not drawn) | > 100 µM | > 100 µM | > 100 µM | > 100 µM | > 100 µM | > 100 µM | > 100 µM | > 100 µM | > 100 µM |  |  |  |  |  |  |  |  |  | 
15 | CC(C)=CC(=O)CC(=O)C(=O)Nc1ccc(C)c(C)c1 | > 100 µM |  | > 100 µM | > 100 µM | > 100 µM | > 100 µM | > 100 µM | > 100 µM | > 100 µM |  |  |  |  |  |  |  |  |  | 
16 | NC(N)=NS(=O)(=O)c1ccc(NC(=O)c2cccc3c(Nc4ccc(S(=O)(=O)N=C(N)N)cc4)c4ccc(Cl)cc4nc23)cc1 | > 100 µM | > 100 µM | > 100 µM | > 100 µM | > 100 µM | > 100 µM |  | > 100 µM | > 100 µM |  |  |  |  |  |  |  |  |  | 
17 | COc1cc(C2C(Cl)C(=O)N2n2cnc3ccccc3c2=O)cc(OC)c1OC (stereo not drawn) | > 100 µM | > 100 µM | > 100 µM | > 100 µM | > 100 µM | > 100 µM | > 100 µM | > 100 µM | > 100 µM |  |  |  |  |  |  |  |  |  | 
18 | CC1=C(C(=O)Nc2ccccc2)C(c2ccc3c(c2)OCO3)C(C(=O)Nc2ccccc2)=C(C)N1 | > 100 µM | > 100 µM | > 100 µM |  | > 100 µM |  | 42.4 µM | > 100 µM | 82 µM |  |  |  |  |  |  |  |  |  | 
19 | NC(N)=NC(CC(=O)O)c1ccccc1 (stereo not drawn) | > 100 µM | > 100 µM | > 100 µM | > 100 µM | > 100 µM | > 100 µM |  | > 100 µM |  |  |  |  |  |  |  |  |  | > 100 µM | 
20 | O/N=C1/C(=C/c2ccc(F)cc2)CCCC1C(NO)c1ccc(F)cc1 (stereo not drawn) | > 100 µM | > 100 µM | > 100 µM | > 100 µM | > 100 µM | > 100 µM | 49.1 µM | > 100 µM | 55.3 µM |  |  |  |  |  |  |  |  |  | 
21 | C/C(=N\N(C)C)c1sc(-n2nc(-c3ccccc3)cc2-c2ccccc2)nc1C | > 100 µM | > 100 µM | > 100 µM | > 100 µM | > 100 µM | 81.1 µM | > 100 µM | > 100 µM | > 100 µM |  |  |  |  |  |  |  |  |  | 
22 | C/C(=N\NC(=S)Nc1ccc(C(=O)O)cc1)c1ccccn1 | > 100 µM | 34.3 µM |  | 51.4 µM | 35.1 µM | 40 µM | 52.5 µM | > 100 µM | > 100 µM |  |  |  |  |  |  |  |  |  | 
